Results: ChEMBL document CHEMBL4673234, “Design, synthesis, biological evaluation and molecular docking of new uracil analogs-1,2,4-oxadiazole hybrids as potential anticancer agents” (Bioorg Med Chem Lett, 2020)

What was measured:
A549 [1] = test: Induction of apoptosis in human A549 cells at 5 uM incubated for 24 hrs by AnnexinV-FITC/7-AAD double staining based analysis relative to control; format: functional
A549 [2] = test: Induction of cell cycle arrest in human A549 cells assessed as G2/M phase at 5 uM incubated for 24 hrs by flow cytometry analysis (reference value: 11.6 %); format: functional
HT-1080 [3] = test: Induction of mitochondrial membrane potential dysfunction in human HT-1080 cells assessed as depolarized live cells at 5 uM incubated for 24 hrs by flow cytometry analysis (reference value: 2.28 %); format: functional
HT-1080 [4] = test: Induction of apoptosis in human HT-1080 cells assessed as necrotic cells at 5 uM incubated for 24 hrs by AnnexinV-FITC/7-AAD double staining based analysis (reference value: 0.73 %); format: functional
HT-1080 [5] = test: Induction of cell cycle arrest in human HT-1080 cells assessed as S phase at 5 uM incubated for 24 hrs by flow cytometry analysis (reference value: 10.3 %); format: functional
HT-1080 [6] = test: Induction of mitochondrial membrane potential dysfunction in human HT-1080 cells assessed as dead cells at 5 uM incubated for 24 hrs by flow cytometry analysis (reference value: 7.61 %); format: functional
MDA-MB-231 = test: Cytotoxicity against human MDA-MB-231 cells assessed as reduction in cell viability incubated for 48 hrs; format: functional, cell-based; settings: MDA-MB-231, 48 h
HT-1080 [7] = test: Induction of apoptosis in human HT-1080 cells assessed as late apoptotic cells at 5 uM incubated for 24 hrs by AnnexinV-FITC/7-AAD double staining based analysis (reference value: 0.12 %); format: functional
HT-1080 [8] = test: Induction of apoptosis in human HT-1080 cells assessed as early apoptotic cells at 5 uM incubated for 24 hrs by AnnexinV-FITC/7-AAD double staining based analysis (reference value: 1.22 %); format: functional
[9] = target: T1, Caspase-3/Caspase-7 (Homo sapiens) (UniProt P42574+P55210); test: Induction of caspase 3/7 proteolytic activity in human A549 cells assessed as induction of apoptosis by measuring viable cells at 5 uM incubated for 24 hrs by flow cytometry analysis (reference value: 88.91 %); format: cell-based; settings: filed as activator
HT-1080 [10] = test: Induction of apoptosis in human HT-1080 cells assessed as viable cells at 5 uM incubated for 24 hrs by AnnexinV-FITC/7-AAD double staining based analysis (reference value: 97.92 %); format: functional; settings: read-out: Activity
MCF7 = test: Cytotoxicity against human MCF7 cells assessed as reduction in cell viability incubated for 48 hrs; format: functional, cell-based; settings: MCF7, 48 h
[11] = target: T1, Caspase-3/Caspase-7 (Homo sapiens); test: Induction of caspase 3/7 proteolytic activity in human HT-1080 cells assessed as induction of apoptosis by measuring viable cells at 5 uM incubated for 24 hrs by flow cytometry analysis (reference value: 91.39 %); format: cell-based; settings: filed as activator
A549 [12] = test: Induction of mitochondrial membrane potential dysfunction in human A549 cells assessed as dead cells at 5 uM incubated for 24 hrs by flow cytometry analysis (reference value: 9.92 %); format: functional
[13] = target: T1, Caspase-3/Caspase-7 (Homo sapiens); test: Induction of caspase 3/7 proteolytic activity in human HT-1080 cells assessed as induction of apoptosis by measuring apoptotic/dead cells at 5 uM incubated for 24 hrs by flow cytometry analysis (reference value: 4.97 %); format: cell-based
[14] = Induction of caspase 3/7 proteolytic activity in human HT-1080 cells assessed as induction of apoptosis at 5 uM incubated for 24 hrs by flow cytometry analysis relative to control; format: functional
[15] = Induction of caspase 3/7 proteolytic activity in human A549 cells assessed as induction of apoptosis at 5 uM incubated for 24 hrs by flow cytometry analysis relative to control; format: functional
[16] = target: T1, Caspase-3/Caspase-7 (Homo sapiens); test: Induction of caspase 3/7 proteolytic activity in human A549 cells assessed as induction of apoptosis by measuring apoptotic/dead cells at 5 uM incubated for 24 hrs by flow cytometry analysis (reference value: 5.65 %); format: cell-based
A549 [17] = test: Induction of apoptosis in human A549 cells assessed as necrotic cells at 5 uM incubated for 24 hrs by AnnexinV-FITC/7-AAD double staining based analysis (reference value: 1.04 %); format: functional
A549 [18] = test: Induction of apoptosis in human A549 cells at 5 uM incubated for 24 hrs by AnnexinV-FITC/7-AAD double staining based analysis (reference value: 9.08%); format: functional
A549 [19] = test: Induction of apoptosis in human A549 cells assessed as early apoptotic cells at 5 uM incubated for 24 hrs by AnnexinV-FITC/7-AAD double staining based analysis (reference value: 6.07 %); format: functional
A549 [20] = test: Induction of mitochondrial membrane potential dysfunction in human A549 cells assessed as viable cells at 5 uM incubated for 24 hrs by flow cytometry analysis (reference value: 86.64 to 88.54 %); format: functional; settings: read-out: Activity
A549 [21] = test: Cytotoxicity against human A549 cells assessed as reduction in cell viability incubated for 48 hrs; format: functional, cell-based; settings: A549, 48 h
A549 [22] = test: Induction of apoptosis in human A549 cells assessed as viable cells at 5 uM incubated for 24 hrs by AnnexinV-FITC/7-AAD double staining based analysis (reference value: 89.88 %); format: functional; settings: read-out: Activity
A549 [23] = test: Induction of cell cycle arrest in human A549 cells assessed as S phase at 5 uM incubated for 24 hrs by flow cytometry analysis (reference value: 9.6 %); format: functional
HT-1080 [24] = test: Induction of apoptosis in human HT-1080 cells assessed as early apoptotic cells at 5 uM incubated for 24 hrs by AnnexinV-FITC/7-AAD double staining based analysis relative to control; format: functional
[25] = target: T1, Caspase-3/Caspase-7 (Homo sapiens); test: Induction of caspase 3/7 proteolytic activity in human A549 cells assessed as induction of apoptosis by measuring apoptotic cells at 5 uM incubated for 24 hrs by flow cytometry analysis (reference value: 2.54 %); format: cell-based
HT-1080 [26] = test: Induction of cell cycle arrest in human HT-1080 cells assessed as G0/G1 phase at 5 uM incubated for 24 hrs by flow cytometry analysis (reference value: 63 %); format: functional
[27] = target: T1, Caspase-3/Caspase-7 (Homo sapiens); test: Induction of caspase 3/7 proteolytic activity in human HT-1080 cells assessed as induction of apoptosis by measuring dead cells at 5 uM incubated for 24 hrs by flow cytometry analysis (reference value: 2.15 %); format: cell-based
A549 [28] = test: Induction of apoptosis in human A549 cells assessed as early apoptotic cells at 5 uM incubated for 24 hrs by AnnexinV-FITC/7-AAD double staining based analysis relative to control; format: functional
[29] = target: T1, Caspase-3/Caspase-7 (Homo sapiens); test: Induction of caspase 3/7 proteolytic activity in human HT-1080 cells assessed as induction of apoptosis by measuring apoptotic cells at 5 uM incubated for 24 hrs by flow cytometry analysis (reference value: 1.48 %); format: cell-based
HT-1080 [30] = test: Induction of mitochondrial membrane potential dysfunction in human HT-1080 cells assessed as viable cells at 5 uM incubated for 24 hrs by flow cytometry analysis (reference value: 90.10 %); format: functional; settings: read-out: Activity
HT-1080 [31] = test: Induction of apoptosis in human HT-1080 cells at 5 uM incubated for 24 hrs by AnnexinV-FITC/7-AAD double staining based analysis (reference value: 1.34%); format: functional
A549 [32] = test: Induction of cell cycle arrest in human A549 cells assessed as G0/G1 phase at 5 uM incubated for 24 hrs by flow cytometry analysis (reference value: 73.5 %); format: functional
A549 [33] = test: Induction of mitochondrial membrane potential dysfunction in human A549 cells assessed as depolarized dead cells at 5 uM incubated for 24 hrs by flow cytometry analysis (reference value: 0.39 %); format: functional
A549 [34] = test: Induction of mitochondrial membrane potential dysfunction in human A549 cells assessed as depolarized live cells at 5 uM incubated for 24 hrs by flow cytometry analysis (reference value: 1.16 %); format: functional
HT-1080 [35] = test: Induction of apoptosis in human HT-1080 cells at 5 uM incubated for 24 hrs by AnnexinV-FITC/7-AAD double staining based analysis relative to control; format: functional
HT-1080 [36] = test: Induction of cell cycle arrest in human HT-1080 cells assessed as G2/M phase at 5 uM incubated for 24 hrs by flow cytometry analysis (reference value: 25.6 %); format: functional
A-375 [37] = test: Cytotoxicity against human A-375 cells assessed as cell viability at 5 uM incubated for 48 hrs (reference value: 100 %); format: functional; settings: read-out: Activity
HT-1080 [38] = test: Cytotoxicity against human HT-1080 cells assessed as reduction in cell viability incubated for 48 hrs; format: functional, cell-based; settings: HT-1080, 48 h
A549 [39] = test: Induction of apoptosis in human A549 cells assessed as late apoptotic cells at 5 uM incubated for 24 hrs by AnnexinV-FITC/7-AAD double staining based analysis (reference value: 3.01 %); format: functional
[40] = target: T1, Caspase-3/Caspase-7 (Homo sapiens); test: Induction of caspase 3/7 proteolytic activity in human A549 cells assessed as induction of apoptosis by measuring dead cells at 5 uM incubated for 24 hrs by flow cytometry analysis (reference value: 2.90 %); format: cell-based
A-375 [41] = test: Cytotoxicity against human A-375 cells assessed as cell viability at 10 uM incubated for 48 hrs (reference value: 100 %); format: functional; settings: read-out: Activity
HT-1080 [42] = test: Induction of mitochondrial membrane potential dysfunction in human HT-1080 cells assessed as depolarized dead cells at 5 uM incubated for 24 hrs by flow cytometry analysis (reference value: 0.0 %); format: functional

T1 sequence (P42574 whole entry, looked up): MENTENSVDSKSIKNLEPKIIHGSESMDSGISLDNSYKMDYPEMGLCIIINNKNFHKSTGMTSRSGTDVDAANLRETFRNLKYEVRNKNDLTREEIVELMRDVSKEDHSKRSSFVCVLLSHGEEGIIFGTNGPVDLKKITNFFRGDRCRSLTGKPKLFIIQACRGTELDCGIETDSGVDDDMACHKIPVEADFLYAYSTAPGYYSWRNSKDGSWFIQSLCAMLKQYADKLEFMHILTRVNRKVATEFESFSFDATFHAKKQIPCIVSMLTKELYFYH
T1 sequence (P55210 whole entry, looked up): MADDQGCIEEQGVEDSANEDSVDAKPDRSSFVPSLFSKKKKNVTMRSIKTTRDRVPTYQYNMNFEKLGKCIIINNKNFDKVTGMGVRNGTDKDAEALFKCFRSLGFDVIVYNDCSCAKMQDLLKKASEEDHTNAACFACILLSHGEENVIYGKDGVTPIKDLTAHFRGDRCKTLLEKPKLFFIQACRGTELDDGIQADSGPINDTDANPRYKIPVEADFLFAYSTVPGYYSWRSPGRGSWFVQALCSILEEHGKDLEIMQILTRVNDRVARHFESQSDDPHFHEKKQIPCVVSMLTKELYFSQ

O=c1[nH]c(=O)n(Cc2ccc(-c3noc(-c4ccc(-c5ccccc5)cc4)n3)cc2)cc1F
fold change (FC) (A549 [1]): 3 | Activity (A549 [2]): 11.5% | Activity (HT-1080 [3]): 3.61% | Activity (HT-1080 [4]): 1.49% | Activity (HT-1080 [5]): 13.9% | Activity (HT-1080 [6]): 16.96% | IC50 (MDA-MB-231): 8.37 µM | Activity (HT-1080 [7]): 9.56% | Activity (HT-1080 [8]): 4.25% | Activity [9]: 64.3% | viability at 5 µM (HT-1080 [10]): 84.7% | IC50 (MCF7): 1.19 µM | Activity [11]: 68.6% | Activity (A549 [12]): 20.29% | Activity [13]: 19.4% | fold change (FC) [14]: 3 | fold change (FC) [15]: 3 | Activity [16]: 25.8% | Activity (A549 [17]): 3.26% | Activity (A549 [18]): 29.01% | Activity (A549 [19]): 9.29% | viability at 5 µM (A549 [20]): 78% | IC50 (A549 [21]): 3.12 µM | viability at 5 µM (A549 [22]): 72.7% | Activity (A549 [23]): 12% | fold change (FC) (HT-1080 [24]): 3.5 | Activity [25]: 3.25% | Activity (HT-1080 [26]): 59.9% | Activity [27]: 9.15% | fold change (FC) (A549 [28]): 1.5 | Activity [29]: 2.87% | viability at 5 µM (HT-1080 [30]): 78.7% | Activity (HT-1080 [31]): 13.81% | Activity (A549 [32]): 71.8% | Activity (A549 [33]): 0.63% | Activity (A549 [34]): 1.03% | fold change (FC) (HT-1080 [35]): 10 | Activity (HT-1080 [36]): 24.1% | viability at 5 µM (A-375 [37]): 29% | IC50 (HT-1080 [38]): 0.88 µM | Activity (A549 [39]): 14.72% | Activity [40]: 6.64% | viability at 10 µM (A-375 [41]): 17% | Activity (HT-1080 [42]): 0%

O=c1ccn(Cc2ccc(-c3noc(-c4ccc(-c5ccccc5)cc4)n3)cc2)c(=O)[nH]1
viability at 5 µM (A-375 [37]): 85% | viability at 10 µM (A-375 [41]): 82%

O=c1cnn(Cc2ccc(-c3noc(-c4ccccc4)n3)cc2)c(=O)[nH]1
viability at 5 µM (A-375 [37]): 100% | viability at 10 µM (A-375 [41]): 62%

N/C(=N\O)c1ccc(Cn2ncc(=O)[nH]c2=O)cc1
viability at 5 µM (A-375 [37]): 100% | viability at 10 µM (A-375 [41]): 94%

COc1ccc(-c2ccc(-c3nc(-c4ccc(Cn5cc(F)c(=O)[nH]c5=O)cc4)no3)cc2)cc1
IC50 (MDA-MB-231): 6.52 µM | IC50 (MCF7): 0.89 µM | IC50 (A549 [21]): 4.02 µM | viability at 5 µM (A-375 [37]): 29% | IC50 (HT-1080 [38]): 0.98 µM | viability at 10 µM (A-375 [41]): 23%

COc1ccc(-c2nc(-c3ccc(Cn4ccc(=O)[nH]c4=O)cc3)no2)cc1
viability at 5 µM (A-375 [37]): 59% | viability at 10 µM (A-375 [41]): 55%
